7 compounds from the supplement of paper PMC11061612 can be followed below.

In experiment [1] the test system is CAL-148 (Breast Carcinoma). Briefly: Bliss excess, mean over the matrix (fraction); higher = more synergy. An outline of the steps: (§1)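 Bliss excess equals the observed combination effect minus the expected value EA + EB − EA·EB, where EA and EB are the effects of each agent alone. Combination Emax is the second-highest inhibition within the matrix. Inhibition was scaled from CellTiter-Glo 2.0 luminescence, with 0 set by vehicle wells and 1 by blank wells, after 72 hours of two-drug dosing of cells plated in 1536-well plates.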

Experiment [2] has as its system DEL (T-Cell Non-Hodgkin's Lymphoma). The experiment is described as above. An outline of the steps:
as §1

Experiment [3] relates to EC-GI-10 (Esophageal Squamous Cell Carcinoma). The experiment is described as above. An outline of the steps:
as §1

Experiment [4] concerns HO-1-N-1 (Oral Cavity Carcinoma). Described as above. An outline of the steps:
as §1

The test system of experiment [5] is KYSE-520 (Esophageal Squamous Cell Carcinoma). The experiment is described as above. An outline of the steps: as §1
Experiment [6] relates to TE-9 (Esophageal Squamous Cell Carcinoma). The description is as above. An outline of the steps: as §1
For experiment [7], the system named is B-CPAP (Thyroid Gland Carcinoma). Briefly: combination Emax (second highest fraction inhibited in the dose matrix, 72 h); higher = more inhibition; extreme values may be limits of the assay. An outline of the steps: as §1
In experiment [8] the test system is CaR-1 (Colorectal Carcinoma). The description is as above. An outline of the steps: as §1
Experiment [9] concerns Daoy (Other Solid Carcinomas). The description is as above. A digest of the protocol: as §1
Experiment [10] relates to HCC-78 (Lung Adenocarcinoma). The experiment is described as above. An outline of the steps:
as §1

Experiment [11] concerns HO-1-N-1 (Oral Cavity Carcinoma). The description is as above. A digest of the protocol: as §1
The next experiment has as its system KELLY (Neuroblastoma). Described as above. A digest of the protocol:
as §1

In experiment [12] the test system is KP-1N (Pancreatic Carcinoma). The experiment is described as above. An outline of the steps:
as §1

Experiment [13] deals with KURAMOCHI (Ovarian Carcinoma). The description is as above. An outline of the steps:
as §1

Experiment [14] relates to LNCaP-Clone-FGC (Prostate Carcinoma). The description is as above. An outline of the steps: as §1
Experiment [15] concerns MDA-MB-361 (Breast Carcinoma). The experiment is described as above. An outline of the steps:
as §1

In experiment [16] the test system is NCI-H2085 (Non-Small Cell Lung Carcinoma). Described as above. An outline of the steps:
as §1

Experiment [17] concerns NCI-H82 (Small Cell Lung Carcinoma). The description is as above. An outline of the steps:
as §1

Experiment [18] relates to RO82-W-1 (Thyroid Gland Carcinoma). Described as above. A digest of the protocol: as §1
In experiment [19] the test system is SK-ES-1 (Ewing's Sarcoma). The description is as above. A digest of the protocol: as §1

As to `COc1cccc(OCCCN)c1-c1cc(Nc2cnc(C#N)cn2)n[nH]1` [Prexasertib] + C=CCn1c(=O)c2cnc(Nc3ccc(N4CCN(C)CC4)cc3)nc2n1-c1cccc(C(C)(C)O)n1 [AZD1775] (first compound max 1 µM, partner max 1 µM), the Bliss excess in experiment [1] came out at 0.136; in experiment [2] it was 0.0279; in [3], 0.077; in experiment [4], 0.104; in [5], 0.0142; in experiment [6], 0.2. Further, the “combination Emax” value came out at 0.874 in experiment [7]; 0.797 in experiment [8]; 0.985 in experiment [9]; 0.793 in experiment [10]; 0.985 in experiment [11]; 1 with KELLY (Neuroblastoma). In addition, the “combination Emax” value in [12] came to 0.575; in [13], 0.773; in experiment [14], 0.846; in [15], 0.926; in experiment [16], 0.94; in experiment [17], 0.996. Besides, the results for the “combination Emax” value in experiment [18] and in experiment [19] were 0.553 and 1, respectively.
On to `COc1cccc(OCCCN)c1-c1cc(Nc2cnc(C#N)cn2)n[nH]1` [Prexasertib] + CCc1c2c(nc3ccc(O)cc13)-c1cc3c(c(=O)n1C2)COC(=O)[C@]3(O)CC [SN-38] (first compound max 1 µM, 7x7, partner max 0.3 µM), for which the Bliss excess is -0.0388 in experiment [1]; -0.0068 in [2]; 0.0252 in experiment [3]; -0.0054 in experiment [4]; 0.048 in [5]; 0.0438 in experiment [6]. The “combination Emax” value worked out at 0.968 in experiment [7]; 0.799 in [8]; 0.999 in experiment [9]; 0.947 in experiment [10]; 1 in experiment [11]; 1 in the experiment on KELLY (Neuroblastoma). The “combination Emax” value was determined as 0.64 in [12]; 0.897 in experiment [13]; 0.766 in experiment [14]; 0.913 in experiment [15]; 0.86 in experiment [16]; 1 in experiment [17]. Moreover, the “combination Emax” value in experiment [18] was determined as 0.511; in experiment [19], 1.
On to `COc1cccc(OCCCN)c1-c1cc(Nc2cnc(C#N)cn2)n[nH]1` [Prexasertib] + CN(C)CCCOc1ccc(-c2ccc3ncc4c(c3c2)n(C2CCOCC2)c(=O)n4C)cn1 [AZD0156] (first compound max 1 µM, 7x7, partner max 1 µM), for which the Bliss excess in experiment [1] is -0.0115; in experiment [2] it was -0.0201; in [3] it was -0.0056; in [4] it was -0.0077; in experiment [5], -0.0211; in experiment [6], -0.0307. Further, the “combination Emax” value amounted to 0.686 in [7]; 0.627 in experiment [8]; 0.958 in experiment [9]; 0.685 in experiment [10]; 0.913 in experiment [11]; 1 in the experiment on KELLY (Neuroblastoma). Also, the “combination Emax” value worked out at 0.298 in experiment [12]; 0.706 in experiment [13]; 0.827 in [14]; 0.954 in [15]; 0.92 in [16]; 1 in experiment [17]. For the same compound, the “combination Emax” value in experiment [18] is 0.572; in [19], 0.948.
Regarding `COc1cccc(OCCCN)c1-c1cc(Nc2cnc(C#N)cn2)n[nH]1` [Prexasertib] + C[C@@H]1COCCN1C2=NC(=NC(=C2)C3(CC3)[S@](=N)(=O)C)C4=C5C=CNC5=NC=C4 [AZD6738] (first compound max 1 µM, 7x7, partner max 10 µM), the Bliss excess was 0.0988 in experiment [1]; 0.001 in experiment [2]; 0.0193 in experiment [3]; 0.0115 in experiment [4]; -0.0696 in experiment [5]; -0.0233 in experiment [6]. The “combination Emax” value worked out at 0.742 in experiment [7]; 0.696 in [8]; 0.956 in experiment [9]; 0.744 in experiment [10]; 0.898 in experiment [11]; 1 in the experiment with KELLY (Neuroblastoma). For the same compound, the “combination Emax” value was 0.324 in experiment [12]; 0.647 in experiment [13]; 0.842 in [14]; 0.922 in experiment [15]; 0.872 in experiment [16]; 0.995 in experiment [17]. The “combination Emax” value is 0.441 in experiment [18] and 0.944 in experiment [19].
On to `COc1cccc(OCCCN)c1-c1cc(Nc2cnc(C#N)cn2)n[nH]1` [Prexasertib] + Cc1cc2ncnn2cc1Nc1ncc2c(n1)n(C1CCOCC1)c(=O)n2C [AZD7648] (first compound max 1 µM, 7x7, partner max 10 µM), for which the Bliss excess was 0.0235 in experiment [1]; -0.0097 in [2]; -0.0144 in experiment [3]; 0.0096 in experiment [4]; -0.0177 in experiment [5]; -0.0322 in experiment [6]. In addition, the “combination Emax” value in [7] is 0.73; in [8], 0.67; in experiment [9], 0.965; in experiment [10], 0.736; in experiment [11], 0.927; in the experiment on KELLY (Neuroblastoma), 1. Also, the “combination Emax” value was found to be 0.246 in experiment [12]; 0.672 in [13]; 0.83 in experiment [14]; 0.929 in [15]; 0.825 in experiment [16]; 1 in experiment [17]. In addition, the “combination Emax” value came to 0.45 in [18] and 0.964 in [19].
In the case of `COc1cccc(OCCCN)c1-c1cc(Nc2cnc(C#N)cn2)n[nH]1` [Prexasertib] + O=C(c1cc(Cc2n[nH]c(=O)c3ccccc23)ccc1F)N1CCN(C(=O)C2CC2)CC1 [Olaparib] (first compound max 1 µM, 7x7, partner max 10 µM), the Bliss excess was -0.0507 in experiment [1]; 0.0035 in [2]; -0.0253 in experiment [3]; 0.0205 in [4]; -0.111 in experiment [5]; -0.0425 in experiment [6]. Also, the “combination Emax” value in experiment [7] stood at 0.763; in experiment [8], 0.638; in experiment [9], 0.983; in experiment [10], 0.718; in experiment [11] it was 0.938; in the experiment with KELLY (Neuroblastoma), 0.98. Also, the “combination Emax” value in experiment [12] came out at 0.332; in experiment [13] it was 0.68; in [14] it was 0.851; in [15], 0.919; in experiment [16], 0.587; in experiment [17], 0.925. The “combination Emax” value is 0.45 in experiment [18] and 1 in [19].
For `COc1cc2c(cc1OCCCCCOc1cc3c(cc1OC)C(=O)N1C=C(C)C[C@H]1C=N3)N=C[C@@H]1CC(C)=CN1C2=O` [SG3199] + O=C(c1cc(Cc2n[nH]c(=O)c3ccccc23)ccc1F)N1CCN(C(=O)C2CC2)CC1 [Olaparib] (first compound max 0.001 µM, 7x7, partner max 10 µM), the Bliss excess in experiment [1] was -0.0294; in experiment [2], 0.0108; in experiment [3], -0.011; in experiment [4], -0.0138; in experiment [5] it was -0.0137; in [6], -0.0269. Moreover, the “combination Emax” value was 0.217 in [7]; 0.0995 in experiment [8]; 0.42 in experiment [9]; 0.101 in [10]; 0.103 in experiment [11]; 0.375 in the experiment on KELLY (Neuroblastoma). Besides, the “combination Emax” value turned out to be 0.18 in [12]; 0.129 in experiment [13]; 0.416 in experiment [14]; 0.0847 in [15]; 0.059 in experiment [16]; 0.323 in experiment [17]. Besides, the “combination Emax” value in experiment [18] was determined as 0.17; in experiment [19], 0.917.
